Assay results reported in ChEMBL document CHEMBL1201862, “PubChem BioAssay data set” (2004).
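Cultured in 96-well plates, cells were exposed to test compound for 48 hours across five concentrations. GI50 is the concentration that inhibits growth by half.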 Activity calls are given as the source filed them. Rule as the data show it: active = GI50 up to about 1.1 µM and inactive = higher.

Tests used:
Test in all cases: inhibition of tumour cell growth, NCI panel, 48 h
786-0 = test system: 786-0
A498 = test system: A498
A549 = test system: A549
ACHN = test system: ACHN
BT-549 = test system: BT-549
CAKI-1 = test system: CAKI-1
CCRF-CEM = test system: CCRF-CEM
COLO 205 = test system: COLO 205
DU-145 = test system: DU-145
HCC 2998 = test system: HCC 2998
HCT-116 = test system: HCT-116
HCT-15 = test system: HCT-15
HL-60 = test system: HL-60
HOP-92 = test system: HOP-92
K562 = test system: K562
LOX IMVI = test system: LOX IMVI
MDA-MB-231 = test system: MDA-MB-231
MDA-MB-435 = test system: MDA-MB-435
MDA-N = test system: MDA-N
NCI-H23 = test system: NCI-H23
NCI-H460 = test system: NCI-H460
OVCAR-4 = test system: OVCAR-4
RPMI-8226 = test system: RPMI-8226
RXF 393 = test system: RXF 393
SF-295 = test system: SF-295
SK-MEL-28 = test system: SK-MEL-28
SK-MEL-5 = test system: SK-MEL-5
SK-OV-3 = test system: SK-OV-3
SN12C = test system: SN12C
SNB-19 = test system: SNB-19
SR = test system: SR
SW-620 = test system: SW-620
T47D = test system: T47D
TK-10 = test system: TK-10
U-251 = test system: U-251
UACC-257 = test system: UACC-257
UACC-62 = test system: UACC-62
UO-31 = test system: UO-31
EKVX = test system: EKVX
HOP-62 = test system: HOP-62
HT-29 = test system: HT-29
IGROV-1 = test system: IGROV-1
KM12 = test system: KM12
M14 = test system: M14
MCF7 = test system: MCF7
MOLT-4 = test system: MOLT-4
Malme-3M = test system: Malme-3M
NCI-H226 = test system: NCI-H226
NCI-H522 = test system: NCI-H522
NCI/ADR-RES = test system: NCI/ADR-RES
OVCAR-3 = test system: OVCAR-3
OVCAR-5 = test system: OVCAR-5
OVCAR-8 = test system: OVCAR-8
PC-3 = test system: PC-3
SF-539 = test system: SF-539
SK-MEL-2 = test system: SK-MEL-2
SNB-75 = test system: SNB-75
Hs-578T = test system: Hs-578T
SF-268 = test system: SF-268

Nc1nc2c(c(=O)[nH]1)C(c1ccc(Cl)cc1)C=C(c1ccccc1)N2 (stereo not drawn)
GI50 (786-0): 25.4 µM (inactive)
GI50 (A498): 54.5 µM (inactive)
GI50 (A549): 25.9 µM (inactive)
GI50 (ACHN): 75.3 µM (inactive)
GI50 (BT-549): 35.1 µM (inactive)
GI50 (CAKI-1): 91.4 µM (inactive)
GI50 (CCRF-CEM): 24.8 µM (inactive)
GI50 (COLO 205): 19.1 µM (inactive)
GI50 (DU-145): 29.4 µM (inactive)
GI50 (HCC 2998): 15.3 µM (inactive)
GI50 (HCT-116): 16.3 µM (inactive)
GI50 (HCT-15): 34.7 µM
GI50 (HL-60): 30.8 µM (inactive)
GI50 (HOP-92): 20.4 µM (inactive)
GI50 (K562): 20.6 µM (inactive)
GI50 (LOX IMVI): 45.3 µM (inactive)
GI50 (MDA-MB-231): 20.9 µM (inactive)
GI50 (MDA-MB-435): 15 µM (inactive)
GI50 (MDA-N): 18.6 µM (inactive)
GI50 (NCI-H23): 24.4 µM (inactive)
GI50 (NCI-H460): 20.4 µM (inactive)
GI50 (OVCAR-4): 21.6 µM (inactive)
GI50 (RPMI-8226): 18.4 µM (inactive)
GI50 (RXF 393): 43.6 µM (inactive)
GI50 (SF-295): 26.7 µM (inactive)
GI50 (SK-MEL-28): 22.6 µM (inactive)
GI50 (SK-MEL-5): 19.9 µM (inactive)
GI50 (SK-OV-3): 23.8 µM (inactive)
GI50 (SN12C): 19.9 µM (inactive)
GI50 (SNB-19): 37.9 µM (inactive)
GI50 (SR): 19.4 µM (inactive)
GI50 (SW-620): 18.1 µM (inactive)
GI50 (T47D): 21.8 µM (inactive)
GI50 (TK-10): 51.6 µM (inactive)
GI50 (U-251): 17.8 µM (inactive)
GI50 (UACC-257): 54.8 µM (inactive)
GI50 (UACC-62): 27.4 µM (inactive)
GI50 (UO-31): 92.7 µM (inactive)

O/N=C1\SC(=N\O)/C(=N/O)S\C1=N/O
GI50 (786-0): > 100 µM (inactive)
GI50 (A498): > 100 µM (inactive)
GI50 (A549): > 100 µM (inactive)
GI50 (ACHN): > 100 µM (inactive)
GI50 (BT-549): > 100 µM (inactive)
GI50 (CAKI-1): > 100 µM (inactive)
GI50 (CCRF-CEM): > 100 µM (inactive)
GI50 (COLO 205): > 100 µM (inactive)
GI50 (DU-145): > 100 µM (inactive)
GI50 (EKVX): > 100 µM (inactive)
GI50 (HCC 2998): > 100 µM (inactive)
GI50 (HCT-116): 68.4 µM (inactive)
GI50 (HCT-15): > 100 µM
GI50 (HL-60): 21 µM (inactive)
GI50 (HOP-62): > 100 µM (inactive)
GI50 (HOP-92): > 100 µM (inactive)
GI50 (HT-29): > 100 µM (inactive)
GI50 (IGROV-1): > 100 µM (inactive)
GI50 (K562): 51.2 µM (inactive)
GI50 (KM12): 79.4 µM (inactive)
GI50 (LOX IMVI): > 100 µM (inactive)
GI50 (M14): > 100 µM (inactive)
GI50 (MCF7): > 100 µM (inactive)
GI50 (MDA-MB-231): > 100 µM (inactive)
GI50 (MDA-MB-435): > 100 µM (inactive)
GI50 (MDA-N): 73.8 µM (inactive)
GI50 (MOLT-4): > 100 µM (inactive)
GI50 (Malme-3M): > 100 µM (inactive)
GI50 (NCI-H226): > 100 µM (inactive)
GI50 (NCI-H23): 76.6 µM (inactive)
GI50 (NCI-H460): > 100 µM (inactive)
GI50 (NCI-H522): 16.2 µM (inactive)
GI50 (NCI/ADR-RES): > 100 µM (inactive)
GI50 (OVCAR-3): > 100 µM (inactive)
GI50 (OVCAR-4): > 100 µM (inactive)
GI50 (OVCAR-5): > 100 µM (inactive)
GI50 (OVCAR-8): > 100 µM (inactive)
GI50 (PC-3): > 100 µM (inactive)
GI50 (RPMI-8226): 83.2 µM (inactive)
GI50 (RXF 393): > 100 µM (inactive)
GI50 (SF-295): > 100 µM (inactive)
GI50 (SF-539): > 100 µM (inactive)
GI50 (SK-MEL-28): > 100 µM (inactive)
GI50 (SK-MEL-2): > 100 µM (inactive)
GI50 (SK-MEL-5): 38.7 µM (inactive)
GI50 (SK-OV-3): > 100 µM (inactive)
GI50 (SN12C): > 100 µM (inactive)
GI50 (SNB-19): > 100 µM (inactive)
GI50 (SNB-75): > 100 µM (inactive)
GI50 (SR): 38.2 µM (inactive)
GI50 (SW-620): > 100 µM (inactive)
GI50 (U-251): > 100 µM (inactive)
GI50 (UACC-257): > 100 µM (inactive)
GI50 (UACC-62): 94.8 µM (inactive)
GI50 (UO-31): 87.5 µM (inactive)

COc1cc2nc(-c3cccs3)nc(N3CCN(c4ccccc4C(F)(F)F)CC3)c2cc1OC
GI50 (786-0): > 100 µM (inactive)
GI50 (A498): > 100 µM (inactive)
GI50 (A549): > 100 µM (inactive)
GI50 (ACHN): > 100 µM (inactive)
GI50 (BT-549): > 100 µM (inactive)
GI50 (CAKI-1): 25.2 µM (inactive)
GI50 (CCRF-CEM): 7.23 µM (inactive)
GI50 (COLO 205): > 100 µM (inactive)
GI50 (DU-145): > 100 µM (inactive)
GI50 (EKVX): 53.7 µM (inactive)
GI50 (HCC 2998): > 100 µM (inactive)
GI50 (HCT-116): > 100 µM (inactive)
GI50 (HCT-15): > 100 µM
GI50 (HL-60): 3.87 µM (inactive)
GI50 (HOP-62): > 100 µM (inactive)
GI50 (HOP-92): 21.4 µM (inactive)
GI50 (HT-29): > 100 µM (inactive)
GI50 (Hs-578T): 89.9 µM (inactive)
GI50 (IGROV-1): 25.9 µM (inactive)
GI50 (K562): 83.6 µM (inactive)
GI50 (KM12): 75.5 µM (inactive)
GI50 (LOX IMVI): > 100 µM (inactive)
GI50 (M14): > 100 µM (inactive)
GI50 (MCF7): 46.2 µM (inactive)
GI50 (MDA-MB-231): > 100 µM (inactive)
GI50 (MDA-MB-435): 52.8 µM (inactive)
GI50 (MOLT-4): 16.7 µM (inactive)
GI50 (Malme-3M): > 100 µM (inactive)
GI50 (NCI-H226): > 100 µM (inactive)
GI50 (NCI-H23): > 100 µM (inactive)
GI50 (NCI-H460): > 100 µM (inactive)
GI50 (NCI-H522): 90.4 µM (inactive)
GI50 (NCI/ADR-RES): > 100 µM (inactive)
GI50 (OVCAR-3): 21.5 µM (inactive)
GI50 (OVCAR-4): > 100 µM (inactive)
GI50 (OVCAR-5): > 100 µM (inactive)
GI50 (OVCAR-8): 93.3 µM (inactive)
GI50 (PC-3): 79.3 µM (inactive)
GI50 (RPMI-8226): 51.3 µM (inactive)
GI50 (SF-268): 60.3 µM (inactive)
GI50 (SF-295): 51.2 µM (inactive)
GI50 (SF-539): 55.6 µM (inactive)
GI50 (SK-MEL-28): > 100 µM (inactive)
GI50 (SK-MEL-2): > 100 µM (inactive)
GI50 (SK-MEL-5): 33.3 µM (inactive)
GI50 (SK-OV-3): > 100 µM (inactive)
GI50 (SN12C): > 100 µM (inactive)
GI50 (SNB-19): > 100 µM (inactive)
GI50 (SNB-75): > 100 µM (inactive)
GI50 (SW-620): > 100 µM (inactive)
GI50 (T47D): > 100 µM (inactive)
GI50 (TK-10): 45 µM (inactive)
GI50 (U-251): > 100 µM (inactive)
GI50 (UACC-257): > 100 µM (inactive)
GI50 (UACC-62): 76.7 µM (inactive)
GI50 (UO-31): > 100 µM (inactive)

COc1cc(C2c3cccc4cccc(c34)C3CCC(=O)N32)cc(O)c1O (stereo not drawn)
GI50 (786-0): 44.2 µM (inactive)
GI50 (A498): > 50 µM (inactive)
GI50 (A549): 31.2 µM (inactive)
GI50 (ACHN): > 50 µM (inactive)
GI50 (BT-549): > 50 µM (inactive)
GI50 (CCRF-CEM): 10.9 µM (inactive)
GI50 (COLO 205): > 50 µM (inactive)
GI50 (DU-145): > 50 µM (inactive)
GI50 (EKVX): 26.7 µM (inactive)
GI50 (HCT-116): 20.7 µM (inactive)
GI50 (HCT-15): 23.7 µM
GI50 (HL-60): 14.6 µM (inactive)
GI50 (HOP-62): 47.1 µM (inactive)
GI50 (HOP-92): > 50 µM (inactive)
GI50 (HT-29): 48.1 µM (inactive)
GI50 (IGROV-1): 26.9 µM (inactive)
GI50 (K562): 10.8 µM (inactive)
GI50 (KM12): > 50 µM (inactive)
GI50 (M14): 43.7 µM (inactive)
GI50 (MCF7): 20.6 µM (inactive)
GI50 (MDA-MB-435): 19.2 µM (inactive)
GI50 (MDA-N): 22.3 µM (inactive)
GI50 (MOLT-4): 12.7 µM (inactive)
GI50 (NCI-H226): > 50 µM (inactive)
GI50 (NCI-H23): 27.1 µM (inactive)
GI50 (NCI-H460): 36.5 µM (inactive)
GI50 (NCI/ADR-RES): 37.7 µM (inactive)
GI50 (OVCAR-3): 18.1 µM (inactive)
GI50 (OVCAR-4): 12.7 µM (inactive)
GI50 (OVCAR-5): > 50 µM (inactive)
GI50 (OVCAR-8): 27.9 µM (inactive)
GI50 (PC-3): 34.4 µM (inactive)
GI50 (RPMI-8226): 11.5 µM (inactive)
GI50 (RXF 393): > 50 µM (inactive)
GI50 (SF-295): 39.9 µM (inactive)
GI50 (SF-539): 20.9 µM (inactive)
GI50 (SK-MEL-28): 33.5 µM (inactive)
GI50 (SK-MEL-2): > 50 µM (inactive)
GI50 (SK-OV-3): > 50 µM (inactive)
GI50 (SN12C): 41 µM (inactive)
GI50 (SNB-19): > 50 µM (inactive)
GI50 (SNB-75): > 50 µM (inactive)
GI50 (SR): 9.71 µM (inactive)
GI50 (SW-620): 28.6 µM (inactive)
GI50 (T47D): 29.9 µM (inactive)
GI50 (U-251): 19 µM (inactive)
GI50 (UACC-257): 24.7 µM (inactive)
GI50 (UACC-62): 25.6 µM (inactive)
GI50 (UO-31): 28.8 µM (inactive)
